Laboratory results published in US9737542B2, “Pyrrolotriazine kinase inhibitors” (BRISTOL-MYERS SQUIBB COMPANY, priority 2013, dated 2017).

These compounds were tested against GST-Xa-hAAK1 (Homo sapiens (Human), UniProt Q2M2I8) (assay: AAK1 Kinase Assay). Conditions: ATP 22 μM; 3 hours at room temperature.
Type: biochemical
Protocol: The assays were performed in U-bottom 384-well plates. […] The reactions were initiated by the combination of bacterially expressed, GST-Xa-hAAK1 with substrates and test compounds. The reactions were incubated at room temperature for 3 hours and terminated by adding 60 μl of 35 mM EDTA buffer to each sample. The reactions were analyzed on the Caliper LabChip 3000 (Caliper, Hopkinton, Mass.) by electrophoretic separation of the fluorescent substrate and phosphorylated product. Inhibition data were calculated by comparison to EDTA quenched control reactions for 100% inhibition and vehicle-only reactions for 0% inhibition. […] Dose response curves were generated to determine the concentration required inhibiting 50% of kinase activity (IC50). Compounds were dissolved at 10 mM in dimethylsulfoxide (DMSO) and evaluated at eleven concentrations. IC50 values were derived by non-linear regression analysis.

Chain of GST-Xa-hAAK1 (Q2M2I8 whole entry): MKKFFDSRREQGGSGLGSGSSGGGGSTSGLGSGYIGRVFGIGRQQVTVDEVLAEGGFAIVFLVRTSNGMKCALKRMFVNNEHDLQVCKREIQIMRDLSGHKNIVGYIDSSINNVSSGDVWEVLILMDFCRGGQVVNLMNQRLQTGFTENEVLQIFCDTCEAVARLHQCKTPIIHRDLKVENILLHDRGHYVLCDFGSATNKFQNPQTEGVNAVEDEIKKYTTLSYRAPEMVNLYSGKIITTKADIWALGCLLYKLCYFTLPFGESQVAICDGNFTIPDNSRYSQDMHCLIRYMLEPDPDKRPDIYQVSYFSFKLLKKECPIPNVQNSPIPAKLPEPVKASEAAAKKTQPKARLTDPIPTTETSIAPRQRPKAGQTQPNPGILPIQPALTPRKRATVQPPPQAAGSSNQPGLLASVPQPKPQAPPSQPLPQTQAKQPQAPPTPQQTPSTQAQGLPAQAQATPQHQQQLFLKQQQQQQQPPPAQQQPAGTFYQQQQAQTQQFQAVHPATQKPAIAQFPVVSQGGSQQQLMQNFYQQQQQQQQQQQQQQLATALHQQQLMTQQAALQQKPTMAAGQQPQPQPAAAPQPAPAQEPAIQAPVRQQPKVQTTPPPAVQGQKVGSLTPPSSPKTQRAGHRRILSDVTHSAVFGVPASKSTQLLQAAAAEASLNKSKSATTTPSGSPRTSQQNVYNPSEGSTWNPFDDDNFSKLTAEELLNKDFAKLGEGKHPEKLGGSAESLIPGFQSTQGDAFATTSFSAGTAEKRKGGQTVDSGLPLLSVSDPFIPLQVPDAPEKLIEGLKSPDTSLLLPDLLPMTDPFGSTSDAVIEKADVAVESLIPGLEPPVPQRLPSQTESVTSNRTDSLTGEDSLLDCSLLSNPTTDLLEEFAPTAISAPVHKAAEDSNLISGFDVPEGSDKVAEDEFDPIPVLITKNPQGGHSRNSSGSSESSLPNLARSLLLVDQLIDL

Row | IC50 | Structure (SMILES)
1 | 16 nM | NC1CCN(Cc2ccn3ncnc(Nc4cccc(-c5noc(C6CCCC6)n5)c4)c23)CC1 [Example 73, 5-((4-aminopiperidin-1-yl)methyl)-N-(3-(5-cyclopentyl-1,2,4-oxadiazol-3-yl)phenyl)pyrrolo[2,1-f][1,2,4]triazin-4-amine]
2 | 220 nM | CC(C)n1nnc(-c2cccc(Nc3ncnn4cccc34)c2)n1 [Example 76, N-(3-(2-isopropyl-2H-tetrazol-5-yl)phenyl)pyrrolo[2,1-f][1,2,4]triazin-4-amine]
3 | 291 nM | CC(C)c1nc(-c2cccc(Nc3ncnn4cccc34)c2)no1 [Example 77, N-(3-(5-isopropyl-1,2,4-oxadiazol-3-yl)phenyl)pyrrolo[2,1-f][1,2,4]triazin-4-amine]
4 | 112 nM | CC(C)(CCl)c1nc(-c2cccc(Nc3ncnn4cccc34)c2)no1 [Example 78, N-(3-(5-(1-chloro-2-methylpropan-2-yl)-1,2,4-oxadiazol-3-yl)phenyl)pyrrolo[2,1-f][1,2,4]triazin-4-amine]
5 | 269 nM | CC(C)c1nnc(-c2cccc(Nc3ncnn4cccc34)c2)s1 [Example 79, N-(3-(5-isopropyl-1,3,4-thiadiazol-2-yl)phenyl)pyrrolo[2,1-f][1,2,4]triazin-4-amine]
6 | 384 nM | CC(C)c1nnc(-c2cccc(Nc3ncnn4cccc34)c2)o1 [Example 80, N-(3-(5-isopropyl-1,3,4-oxadiazol-2-yl)phenyl)pyrrolo[2,1-f][1,2,4]triazin-4-amine]
7 | 413 nM | CC(C)(CO)c1nc(-c2cccc(Nc3ncnn4cccc34)c2)no1 [Example 81, 2-methyl-2-(3-(3-(pyrrolo[2,1-f][1,2,4]triazin-4-ylamino)phenyl)-1,2,4-oxadiazol-5-yl)propan-1-ol]
8 | 67 nM | CC(C)(CN)c1nc(-c2cccc(Nc3ncnn4cccc34)c2)no1 [Example 82, N-(3-(5-(1-amino-2-methylpropan-2-yl)-1,2,4-oxadiazol-3-yl)phenyl)pyrrolo[2,1-f][1,2,4]triazin-4-amine]
9 | 406 nM | CC(C)n1nnc(-c2cc(CO)cc(Nc3ncnn4cccc34)c2)n1 [Example 83, (3-(2-isopropyl-2H-tetrazol-5-yl)-5-(pyrrolo[2,1-f][1,2,4]triazin-4-ylamino)phenyl)methanol]
10 | 75 nM | CC(C)n1nnc(-c2cc(O)cc(Nc3ncnn4cccc34)c2)n1 [Example 84, 3-(2-isopropyl-2H-tetrazol-5-yl)-5-(pyrrolo[2,1-f][1,2,4]triazin-4-ylamino)phenol]
11 | 82 nM | CC(C)c1nc(-c2cc(O)cc(Nc3ncnn4cccc34)c2)no1 [Example 85, 3-(5-isopropyl-1,2,4-oxadiazol-3-yl)-5-(pyrrolo[2,1-f][1,2,4]triazin-4-ylamino)phenol]
12 | 123 nM | Cc1ccn2ncnc(Nc3cccc(-c4noc(C(C)C)n4)c3)c12 [Example 86]
13 | 325 nM | Cc1ccn2ncnc(Nc3cccc(-c4nnc(C(C)C)s4)c3)c12 [Example 87, N-(3-(5-isopropyl-1,3,4-thiadiazol-2-yl)phenyl)-5-methylpyrrolo[2,1-f][1,2,4]triazin-4-amine]
14 | 22 nM | Cc1ccn2ncnc(Nc3cccc(-c4nnn(C(C)C)n4)c3)c12 [Example 88, N-(3-(2-isopropyl-2H-tetrazol-5-yl)phenyl)-5-methylpyrrolo[2,1-f][1,2,4]triazin-4-amine]
15 | 207 nM | Cc1ccn2ncnc(Nc3cccc(-c4noc(C(C)(C)CO)n4)c3)c12 [Example 89, 2-methyl-2-(3-(3-(5-methylpyrrolo[1,2-f][1,2,4]triazin-4-ylamino)phenyl)-1,2,4-oxadiazol-5-yl)propan-1-ol]
16 | 52 nM | Cc1ccn2ncnc(Nc3cccc(-c4noc(C(C)(C)CCl)n4)c3)c12 [Example 90, N-(3-(5-(1-chloro-2-methylpropan-2-yl)-1,2,4-oxadiazol-3-yl)phenyl)-5-methylpyrrolo[2,1-f][1,2,4]triazin-4-amine]
17 | 63 nM | Cc1ccn2ncnc(Nc3cccc(-c4noc(C(C)(C)CN)n4)c3)c12 [Example 91, N-(3-(5-(1-amino-2-methylpropan-2-yl)-1,2,4-oxadiazol-3-yl)phenyl)-5-methylpyrrolo[2,1-f][1,2,4]triazin-4-amine]
18 | 1170 nM | COc1cc(Nc2ncnn3ccc(C)c23)cc(-c2noc(C(C)C)n2)c1 [Example 92, N-(3-(5-isopropyl-1,2,4-oxadiazol-3-yl)-5-methoxyphenyl)-5-methylpyrrolo[2,1-f][1,2,4]triazin-4-amine]
19 | 73 nM | Cc1ccn2ncnc(Nc3cc(O)cc(-c4noc(C(C)C)n4)c3)c12 [Example 93, 3-(5-isopropyl-1,2,4-oxadiazol-3-yl)-5-((5-methylpyrrolo[2,1-f][1,2,4]triazin-4-yl)amino)phenol]
20 | 474 nM | CCOC(=O)c1ccn2ncnc(Nc3cccc(-c4nnc(C(C)C)s4)c3)c12 [Example 94, ethyl 4-((3-(5-isopropyl-1,3,4-thiadiazol-2-yl)phenyl)amino)pyrrolo[2,1-f][1,2,4]triazine-5-carboxylate]
21 | 2530 nM | CCOC(=O)c1ccn2ncnc(Nc3cc(O)cc(-c4nnn(C(C)C)n4)c3)c12 [Example 95, ethyl 4-((3-hydroxy-5-(2-isopropyl-2H-tetrazol-5-yl)phenyl)amino)pyrrolo[2,1-f][1,2,4]triazine-5-carboxylate]
22 | 624 nM | CCOC(=O)c1ccn2ncnc(Nc3cccc(-c4nnn(C(C)C)n4)c3)c12 [Example 96, ethyl 4-((3-(2-isopropyl-2H-tetrazol-5-yl)phenyl)amino)pyrrolo[2,1-f][1,2,4]triazine-5-carboxylate]
23 | 883 nM | CCOC(=O)c1ccn2ncnc(Nc3cccc(-c4noc(C(C)C)n4)c3)c12 [Example 97, ethyl 4-((3-(5-isopropyl-1,2,4-oxadiazol-3-yl)phenyl)amino)pyrrolo[2,1-f][1,2,4]triazine-5-carboxylate]
24 | 92 nM | CC(C)n1nnc(-c2cccc(Nc3ncnn4ccc(CO)c34)c2)n1 [Example 98, (4-((3-(2-isopropyl-2H-tetrazol-5-yl)phenyl)amino)pyrrolo[2,1-f][1,2,4]triazin-5-yl)methanol]
25 | 217 nM | CC(C)n1nnc(-c2cccc(Nc3ncnn4ccc(CN)c34)c2)n1 [Example 99, 5-(aminomethyl)-N-(3-(2-isopropyl-2H-tetrazol-5-yl)phenyl)pyrrolo[2,1-f][1,2,4]triazin-4-amine]
26 | 54 nM | COCc1ccn2ncnc(Nc3cccc(-c4nnn(C(C)C)n4)c3)c12 [Example 100, N-(3-(2-isopropyl-2H-tetrazol-5-yl)phenyl)-5-(methoxymethyl)pyrrolo[2,1-f][1,2,4]triazin-4-amine]
27 | 687 nM | CC(C)n1nnc(-c2cccc(Nc3ncnn4ccc(C(=O)N(C)C)c34)c2)n1 [Example 101, 4-((3-(2-isopropyl-2H-tetrazol-5-yl)phenyl)amino)-N,N-dimethylpyrrolo[2,1-f][1,2,4]triazine-5-carboxamide]
28 | 49 nM | CC(C)n1nnc(-c2cccc(Nc3ncnn4ccc(CN(C)C)c34)c2)n1 [Example 102, 5-((dimethylamino)methyl)-N-(3-(2-isopropyl-2H-tetrazol-5-yl)phenyl)pyrrolo[2,1-f][1,2,4]triazin-4-amine]
29 | 26 nM | CNC(=O)c1ccn2ncnc(Nc3cccc(-c4nnn(C(C)C)n4)c3)c12 [Example 103, 4-((3-(2-isopropyl-2H-tetrazol-5-yl)phenyl)amino)-N-methylpyrrolo[2,1-f][1,2,4]triazine-5-carboxamide]
30 | 195 nM | CCNC(=O)c1ccn2ncnc(Nc3cccc(-c4nnn(C(C)C)n4)c3)c12 [Example 104, N-ethyl-4-((3-(2-isopropyl-2H-tetrazol-5-yl)phenyl)amino)pyrrolo[2,1-f][1,2,4]triazine-5-carboxamide]

Same assay, conditions: ATP 22 μM; 3 hours at room temperature; listed as IC50 ranges

Row | IC50 | Structure (SMILES)
31 | 100 to 1000 nM | CC(C)C[C@@H](N)C(=O)Nc1cccc(Nc2ncnn3ccc(CN4CCC(N)CC4)c23)c1 [Example 67, (R)-2-amino-N-(3-((5-((4-aminopiperidin-1-yl)methyl)pyrrolo[2,1-f][1,2,4]triazin-4-yl)amino)phenyl)-4-methylpentanamide]
32 | 1000 to 5000 nM | NC1CCN(Cc2cc(Br)n3ncnc(Nc4cccc(-c5cnco5)c4)c23)CC1 [Example 68, 5-((4-aminopiperidin-1-yl)methyl)-7-bromo-N-(3-(oxazol-5-yl)phenyl)pyrrolo[2,1-f][1,2,4]triazin-4-amine]
33 | 100 to 1000 nM | CC(C)c1nnc(-c2cccc(Nc3ncnn4ccc(CNCCCN)c34)c2)s1 [Example 69, N1-((4-((3-(5-isopropyl-1,3,4-thiadiazol-2-yl)phenyl)amino)pyrrolo[2,1-f][1,2,4]triazin-5-yl)methyl)propane-1,3-diamine]
34 | 100 to 1000 nM | CC(CN)CNCc1ccn2ncnc(Nc3cccc(-c4nnc(C(C)C)s4)c3)c12 (centres unmarked) [Example 70, N1-((4-((3-(5-isopropyl-1,3,4-thiadiazol-2-yl)phenyl)amino)pyrrolo[2,1-f][1,2,4]triazin-5-yl)methyl)-2-methylpropane-1,3-diamine]
35 | 1000 to 5000 nM | CC(C)c1nnc(-c2cccc(Nc3ncnn4ccc(CN5CCCC(CN)C5)c34)c2)s1 (centres unmarked) [Example 71, 5-((3-(aminomethyl)piperidin-1-yl)methyl)-N-(3-(5-isopropyl-1,3,4-thiadiazol-2-yl)phenyl)pyrrolo[2,1-f][1,2,4]triazin-4-amine]
36 | 10 to 100 nM | CC(C)n1nnc(-c2cc(Nc3ncnn4ccc(CN5CCC(N)CC5)c34)cc(C(F)F)c2)n1 [Example 72, 5-((4-aminopiperidin-1-yl)methyl)-N-(3-(difluoromethyl)-5-(2-isopropyl-2H-tetrazol-5-yl)phenyl)pyrrolo[2,1-f][1,2,4]triazin-4-amine]
37 | 10 to 100 nM | CC(C)n1nnc(-c2cc(Nc3ncnn4ccc(CN5CCC(N)CC5)c34)c3[nH]ccc3c2)n1 [Example 74, 5-((4-aminopiperidin-1-yl)methyl)-N-(5-(2-isopropyl-2H-tetrazol-5-yl)-1H-indol-7-yl)pyrrolo[2,1-f][1,2,4]triazin-4-amine]
38 | 100 to 1000 nM | CC(C)n1nnc(-c2cc(Nc3ncnn4ccc(CN5CCC(N)CC5)c34)cc3[nH]cnc23)n1 [Example 75, 5-((4-aminopiperidin-1-yl)methyl)-N-(4-(2-isopropyl-2H-tetrazol-5-yl)-1H-benzo[d]imidazol-6-yl)pyrrolo[2,1-f][1,2,4]triazin-4-amine]
